{
  "source": "paper PMC10244169",
  "about": "“Psychedelics promote plasticity by directly binding to BDNF receptor TrkB” (Nature Neuroscience, 2023)",
  "key": {"TrkB(WT):Fyn": {"target": "T1, TrkB(WT):Fyn (Rattus norvegicus, UniProt Q63604)", "T1 construct": "expressed in transfected cells; host or cells: N2a", "T1 sequence (Q63604 32-821)": "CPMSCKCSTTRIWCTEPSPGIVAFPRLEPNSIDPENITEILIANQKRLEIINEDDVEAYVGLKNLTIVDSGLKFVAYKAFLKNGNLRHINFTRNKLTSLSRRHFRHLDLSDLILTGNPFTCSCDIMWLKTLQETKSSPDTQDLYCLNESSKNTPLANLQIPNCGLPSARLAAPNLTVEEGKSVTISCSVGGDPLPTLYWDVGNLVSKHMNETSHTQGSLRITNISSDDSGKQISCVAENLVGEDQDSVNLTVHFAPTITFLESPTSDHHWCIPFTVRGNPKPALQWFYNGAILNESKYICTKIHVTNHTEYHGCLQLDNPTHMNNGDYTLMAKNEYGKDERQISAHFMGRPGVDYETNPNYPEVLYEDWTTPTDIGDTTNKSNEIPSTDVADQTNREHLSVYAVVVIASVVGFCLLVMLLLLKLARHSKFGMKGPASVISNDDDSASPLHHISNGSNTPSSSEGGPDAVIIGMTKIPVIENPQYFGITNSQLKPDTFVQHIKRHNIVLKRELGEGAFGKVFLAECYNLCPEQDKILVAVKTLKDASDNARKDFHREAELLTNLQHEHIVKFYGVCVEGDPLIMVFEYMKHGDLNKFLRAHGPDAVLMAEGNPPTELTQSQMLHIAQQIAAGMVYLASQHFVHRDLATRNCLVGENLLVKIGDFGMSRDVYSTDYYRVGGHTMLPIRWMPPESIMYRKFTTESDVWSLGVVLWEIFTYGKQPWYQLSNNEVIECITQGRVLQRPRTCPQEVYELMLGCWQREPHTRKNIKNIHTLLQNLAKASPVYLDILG", "test": "PCA of TrkB interaction with lipid raft Fyn in N2a cells", "format": "cell-based", "description": "(§1) Ketanserin, M100907 and TRKB.FC were added to the media 10 min before treatment. The PCA method was performed as previously described[11],[75],[76]. Split humanized Gaussia princeps luciferase (hGLuc) was cloned on the C-terminus of the reporter proteins TrkB (WT and Y433F) and lipid raft Fyn. If the reporter proteins that carry complementary halves of the luciferase interact, the enzyme can refold in its functional conformation and, upon addition of its substrate, produce luminescence proportionally to the amount of reporter proteins interacting at a given time. N2a cells were seeded in 96-well plates with opaque walls and transparent bottom (PerkinElmer, ViewPlate 96). Cells were transfected with Lipofectamine 2000 according to the manufacturer’s instructions 24 h post-plating with the PCA pair plasmids: phGLuc(1C)-TrkB(WT) or the mutant phGLuc(1C)-TrkB(Y433F) and phGLuc(2 C)-TrkB(WT) for the dimerization experiments; phGLuc(1C)-lipid raft Fyn and phGLuc(2C)-TrkB(WT) or phGLuc(2C)-TrkB(Y433F) for the lipid raft localization experiments. Forty-eight hours post transfection, cells were treated (40 min, 37 °C) in phenol red-free Dulbecco’s modified Eagle medium without serum. […] The PCA signal was detected with the substrate for the luciferase, native coelenterazine, which was injected into each well directly in the plate reader at a final concentration of […]. One data point was excluded from Fig. 4b by applying Grubb’s method for outlier detection test, which detected it as a significant outlier."}, "TrkB(Y433F):Fyn": {"target": "T2, TrkB(Y433F):Fyn (Rattus norvegicus, UniProt Q63604, Y433F)", "T2 construct": "expressed in transfected cells; host or cells: N2a", "T2 sequence (Q63604 32-821 Y433F)": "as the sequence (Q63604 32-821) above, with Y402F counted along it", "test": "PCA of TrkB interaction with lipid raft Fyn in N2a cells", "format": "cell-based", "conditions": "Y433F^+/− dimers", "description": "as §1"}, "[1]": {"target": "T3, WT:Y433F heterodimers (Y433F^+/−) (Rattus norvegicus, UniProt Q63604, Y433F)", "T3 construct": "expressed in transfected cells; host or cells: N2a", "T3 sequence (Q63604 32-821 Y433F)": "as the sequence (Q63604 32-821) above, with Y402F counted along it", "T3 sequence (Q63604 32-821, stated change not applied)": "as the sequence (Q63604 32-821) above", "test": "Split-luciferase PCA of TrkB dimerization in N2a cells", "format": "cell-based", "conditions": "for TrkB dimerization: WT:Y433F heterodimers; for TrkB dimerization (PCA), group mean (vehicle = 100): Y433F+/-; for TrkB dimerization time course, group mean (time 0 = 100): TRKB.Y433F", "method_in_brief": "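N2a cells transiently co-transfected with split hGLuc-tagged rat TrkB pairs (WT/WT or Y433F/WT) for dimerization; Ketanserin, M100907 or TRKB.FC added 10 min before treatment. Luminescence read after injection of native coelenterazine ([…] final).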"}, "TrkB pY816": {"test_system": "TrkB pY816", "test": "ELISA of TrkB phosphorylation (pY816) in neuronal cultures", "format": "cell-based, rat", "conditions": "cortical and hippocampal cultures", "description": "The phosphorylation of TrkB (pY816) and interaction with PLCγ1 were assessed by enzyme-linked immunosorbent assay (ELISA) as previously described[11],[80],[81] with minor modifications. Briefly, white 96-well plates (PerkinElmer, OptiPlate 96F-HB) were precoated with goat anti-TrkB (R&D systems, AF1494; 1:500, overnight, 4 °C) antibody in carbonate buffer (pH 9.8) and blocked with 3% BSA in PBS with 0.1% Tween-20 (PBS-T) for 2 h at room temperature. […] Samples were incubated overnight at 4 °C, and 24 h later plates were washed with PBS-T and incubated with either rabbit anti-phospho-TrkB(Tyr816) (Cell Signaling Technology, 4168S; 1:2,000), rabbit anti-PLCγ1 (Cell Signaling Technologies, 5690S; 1:2,000) or rabbit anti-Trk (Cell Signaling Technologies, 92991; 1:2,000) antibodies overnight at 4 °C. After washing with PBS-T, plates were incubated with HRP-conjugated goat anti-rabbit (Bio-Rad, 170–5046; 1:5,000, 1 h, room temperature) antibody, followed by more washing with PBS-T. Finally, the chemiluminescent signal was read after brief incubation with Pierce ECL substrate (Thermo Fisher Scientific, 32106). Luminescence from blank wells that contained all reagents but the sample lysates was used to determine background signal."}, "pERK": {"test_system": "pERK", "test": "Western blot of ERK phosphorylation in cortical neurons", "format": "cell-based, rat", "description": "In a separate set of experiments to examine the effect of 5-HT2A activation, M100907 (100 nM) was administered as a 10 min pretreatment and remained in the medium for the rest of the experiment. Next, cells were lysed and centrifuged. […] The co-immunoprecipitation was carried out as previously described[11],[23],[24] with minor modifications. Briefly, Magnetic Dynabeads Protein G (Invitrogen, 10004D) were coated with anti-TrkB antibody (R&D Systems, AF1494) at 200 ng of antibody per 1 µl of beads in rotation (2 h, 4 °C). Finally, lysates were mixed with the coated beads (100 µg of total protein per 15 µl of beads) and incubated in rotation (overnight, 4 °C).\nProteins were separated according to their molecular weight by SDS–PAGE and transferred to a polyvinylidene fluoride membrane. Membranes were incubated with the following primary antibodies (all 1:1,000 in 3% BSA in TBS-T, overnight, 4 °C): anti-TrkB (R&D Systems, AF1494), anti-β-actin (Sigma-Aldrich, A1978), anti-phospho-mTOR (Cell Signaling Technology, 5536S), anti-phospho-p44/42 MAPK (Erk1/2) (Cell Signaling Technology, 9106S), anti-mTOR (Cell Signaling Technology, 2972S) and anti-p44/42 MAPK (Erk1/2) (Cell Signaling Technology, 9102S). […] Protein bands were visualized using enhanced chemiluminescent substrate (Thermo Scientific, 32132, ECL Plus) and imaged with a charge-coupled device camera (G:BOX, Syngene)."}},
  "data": [
    {"smiles": "CN(C)CCc1c[nH]c2cccc(O)c12", "note": "[PSI, psilocin]", "values": [
      {"measurement": "TrkB interaction with Fyn", "setting": "TrkB(WT):Fyn", "result": "increase TrkB interaction with lipid raft-restricted Fyn"},
      {"measurement": "TrkB interaction with Fyn", "setting": "TrkB(Y433F):Fyn", "result": "this effect is lost"},
      {"measurement": "TrkB dimerization", "setting": "[1]", "result": "this effect is abolished"},
      {"measurement": "TrkB dimerization (PCA), group mean (vehicle = 100)", "setting": "[1]; 1nM", "result": 110.2},
      {"measurement": "TrkB dimerization (PCA), group mean (vehicle = 100)", "setting": "[1]; 10nM", "result": 90.04},
      {"measurement": "TrkB dimerization (PCA), group mean (vehicle = 100)", "setting": "[1]; 100nM", "result": 84.39},
      {"measurement": "TrkB dimerization (PCA), group mean (vehicle = 100)", "setting": "[1]; 1uM", "result": 73.58}
    ]},
    {"smiles": "CCN(CC)C(=O)C1C=C2c3cccc4[nH]cc(c34)CC2N(C)C1", "note": "(stereo not shown) [LSD, lysergic acid diethylamide]", "values": [
      {"measurement": "TrkB interaction with Fyn", "setting": "TrkB(WT):Fyn", "result": "increase TrkB interaction with lipid raft-restricted Fyn"},
      {"measurement": "TrkB interaction with Fyn", "setting": "TrkB(Y433F):Fyn", "result": "this effect is lost"},
      {"measurement": "TrkB phosphorylation (pY816)", "setting": "TrkB pY816", "result": "increases phosphorylation of TrkB tyrosine 816 (pY816)"},
      {"measurement": "phosphorylation of ERK (pERK)", "setting": "pERK; LSD 100 nM", "result": "rapidly increases phosphorylation of ERK (pERK)"},
      {"measurement": "pERK, group mean (5d)", "setting": "pERK; LSD 100 nM, 5 min, vehicle 100", "result": 167.8},
      {"measurement": "pERK, group mean (5d)", "setting": "pERK; LSD 100 nM, 1 h, vehicle 100", "result": 200.7},
      {"measurement": "pERK, group mean (5d)", "setting": "pERK; LSD 100 nM, 24 h, vehicle 100", "result": 100.4},
      {"measurement": "pERK, group mean (5e)", "setting": "pERK; M100907:LSD (LSD after M100907 pretreatment), vehicle 100", "result": 313.5},
      {"measurement": "pERK, group mean (5e)", "setting": "pERK; Vehicle:LSD, vehicle 100", "result": 268.1},
      {"measurement": "pERK, column mean over timepoints (5d)", "setting": "pERK; mean of 5 min, 1 h, 24 h, vehicle 100", "result": 156.3},
      {"measurement": "pERK, column mean of LSD (5e)", "setting": "pERK; over vehicle and M100907 pretreatment, mean of vehicle 104", "result": 290.8},
      {"measurement": "TrkB dimerization time course, group mean (time 0 = 100)", "setting": "[1]; time 15", "result": 129.4},
      {"measurement": "TrkB dimerization time course, group mean (time 0 = 100)", "setting": "[1]; time 60", "result": 136.7},
      {"measurement": "TrkB dimerization time course, group mean (time 0 = 100)", "setting": "[1]; time 120", "result": 108.3},
      {"measurement": "TrkB dimerization time course, group mean (time 0 = 100)", "setting": "[1]; time 240", "result": 108.9},
      {"measurement": "TrkB dimerization time course, group mean (time 0 = 100)", "setting": "[1]; time 480", "result": 60.33},
      {"measurement": "TrkB dimerization", "setting": "[1]", "result": "this effect is abolished"},
      {"measurement": "TrkB dimerization (PCA), group mean (vehicle = 100)", "setting": "[1]; 1nM", "result": 113.3},
      {"measurement": "TrkB dimerization (PCA), group mean (vehicle = 100)", "setting": "[1]; 10nM", "result": 121},
      {"measurement": "TrkB dimerization (PCA), group mean (vehicle = 100)", "setting": "[1]; 100nM", "result": 118.1},
      {"measurement": "TrkB dimerization (PCA), group mean (vehicle = 100)", "setting": "[1]; 1uM", "result": 109.7}
    ]},
    {"smiles": "COc1cccc([C@H](O)C2CCN(CCc3ccc(F)cc3)CC2)c1OC", "note": "[M100907]", "values": [
      {"measurement": "effect of pretreatment on LSD-induced increase in pERK", "setting": "pERK; M100907 100 nM", "result": "does not prevent LSD-induced increase in pERK"},
      {"measurement": "pERK, group mean (5e)", "setting": "pERK; M100907:Vehicle (M100907 100 nM alone), vehicle 100", "result": 108},
      {"measurement": "pERK, row mean of M100907 (5e)", "setting": "pERK; over vehicle and LSD treatment, mean of vehicle row 184.0", "result": 210.8}
    ]}
  ]
}
